Results reported in US20130150377A1, “Tetrahydropyridinyl and Dihydropyrrolyl Compounds and the Use Thereof” (SHIONOGI & CO., LTD., priority 2008, published 2013).
pIC50: −log10 of the molar value.

Molecular target: T1, N-type calcium channel (NTCC) (Homo sapiens, UniProt Q00975)
T1 construct: endogenous in cells; host or cells: differentiated IMR32 cells (ATCC)
Assay: FLIPR calcium mobilization assay for N-type calcium channel (differentiated IMR32 cells)
Type: cell-based
Conditions: N-type calcium channel blockers, calcium mobilization in vitro assay
Experimental: Cell maintenance and differentiation. Unless noted otherwise, cell culture reagents were purchased from Mediatech of Herndon, Md. IMR32 cells (American Type Culture Collection, ATCC, Manassas, Va.) were routinely cultured in growth medium consisting of minimum essential medium containing 10% fetal bovine serum (FBS, Hyclone, Logan, Utah), 100 U/mL penicillin, 100 μg/mL streptomycin, 2 mM L-glutamine, 1 mM sodium pyruvate, and 1×MEM non-essential amino acids. 80-90% confluent flasks of cells were differentiated using the following differentiation medium: Growth medium plus 1 mM dibutyryl cyclic AMP (Sigma, St. Louis, Mo.), and 2.5 μM bromodeoxyuridine (Sigma). Cells were differentiated for 8 days by replacing differentiation medium every 2-3 days.
FLIPR Calcium Mobilization Assay for N-type Calcium Channel.
One day prior to performing this assay, differentiated IMR32 cells were treated with 1× CellStripper, and seeded on poly-D-lysine-coated 96-well clear-bottom black plates (Becton Dickinson, Franklin Lakes, N.J.) at 200,000 cells/well. On the day of the assay, the cell plates were washed with IMR32 buffer (127 mM NaCl, 1 mM KCl, 2 mM MgCl2, 700 μM NaH2PO4, 5 mM CaCl2, 5 mM NaHCO3, 8 mM HEPES, 10 mM glucose, pH 7.4), then pre-stimulated with KCl and loaded as follows: […] of IMR32 buffer, 0.05 mL of each compound tested diluted in IMR32 buffer containing 20 μM nitrendipine (Sigma), and 0.1 mL KCl dissolved in IMR32 buffer, plus Fluo-4 were added (3 μM final concentration, Molecular Probes, Eugene, Oreg.). Final test compound concentrations ranged from about 846 pM to about 17 μM, final nitrendipine concentration was 5 μM, and final KCl concentration was 90 mM. After 1 hour, the cells were washed twice with 0.05 mL of each compound tested in nitrendipine-containing IMR32 buffer (no KCl or Fluo-4), and then replaced with 0.1 mL of each compound tested in nitrendipine-containing IMR32 buffer. Plates were then transferred to a Fluorimetric Imaging Plate Reader (FLIPR^96, Molecular Devices, Inc., Sunnyvale, Calif.) for assay. The FLIPR measured basal Fluo-4 fluorescence for 315 seconds (i.e., 5 minutes and 15 seconds), then added 0.1 mL KCl agonist dissolved in IMR32 buffer and measured fluorescence for another 45 seconds. Final test compound concentrations on the cells after FLIPR read ranged from about 846 pM to about 17 μM, final nitrendipine concentration was 5 μM, and final KCl concentration was 90 mM. Data were collected over the entire time course and analyzed using Excel, Graph Pad Prism (version 3.02, Graph Pad, San Diego, Calif.), or an in-house non-linear regression analysis software.

T1 sequence (Q00975 whole entry): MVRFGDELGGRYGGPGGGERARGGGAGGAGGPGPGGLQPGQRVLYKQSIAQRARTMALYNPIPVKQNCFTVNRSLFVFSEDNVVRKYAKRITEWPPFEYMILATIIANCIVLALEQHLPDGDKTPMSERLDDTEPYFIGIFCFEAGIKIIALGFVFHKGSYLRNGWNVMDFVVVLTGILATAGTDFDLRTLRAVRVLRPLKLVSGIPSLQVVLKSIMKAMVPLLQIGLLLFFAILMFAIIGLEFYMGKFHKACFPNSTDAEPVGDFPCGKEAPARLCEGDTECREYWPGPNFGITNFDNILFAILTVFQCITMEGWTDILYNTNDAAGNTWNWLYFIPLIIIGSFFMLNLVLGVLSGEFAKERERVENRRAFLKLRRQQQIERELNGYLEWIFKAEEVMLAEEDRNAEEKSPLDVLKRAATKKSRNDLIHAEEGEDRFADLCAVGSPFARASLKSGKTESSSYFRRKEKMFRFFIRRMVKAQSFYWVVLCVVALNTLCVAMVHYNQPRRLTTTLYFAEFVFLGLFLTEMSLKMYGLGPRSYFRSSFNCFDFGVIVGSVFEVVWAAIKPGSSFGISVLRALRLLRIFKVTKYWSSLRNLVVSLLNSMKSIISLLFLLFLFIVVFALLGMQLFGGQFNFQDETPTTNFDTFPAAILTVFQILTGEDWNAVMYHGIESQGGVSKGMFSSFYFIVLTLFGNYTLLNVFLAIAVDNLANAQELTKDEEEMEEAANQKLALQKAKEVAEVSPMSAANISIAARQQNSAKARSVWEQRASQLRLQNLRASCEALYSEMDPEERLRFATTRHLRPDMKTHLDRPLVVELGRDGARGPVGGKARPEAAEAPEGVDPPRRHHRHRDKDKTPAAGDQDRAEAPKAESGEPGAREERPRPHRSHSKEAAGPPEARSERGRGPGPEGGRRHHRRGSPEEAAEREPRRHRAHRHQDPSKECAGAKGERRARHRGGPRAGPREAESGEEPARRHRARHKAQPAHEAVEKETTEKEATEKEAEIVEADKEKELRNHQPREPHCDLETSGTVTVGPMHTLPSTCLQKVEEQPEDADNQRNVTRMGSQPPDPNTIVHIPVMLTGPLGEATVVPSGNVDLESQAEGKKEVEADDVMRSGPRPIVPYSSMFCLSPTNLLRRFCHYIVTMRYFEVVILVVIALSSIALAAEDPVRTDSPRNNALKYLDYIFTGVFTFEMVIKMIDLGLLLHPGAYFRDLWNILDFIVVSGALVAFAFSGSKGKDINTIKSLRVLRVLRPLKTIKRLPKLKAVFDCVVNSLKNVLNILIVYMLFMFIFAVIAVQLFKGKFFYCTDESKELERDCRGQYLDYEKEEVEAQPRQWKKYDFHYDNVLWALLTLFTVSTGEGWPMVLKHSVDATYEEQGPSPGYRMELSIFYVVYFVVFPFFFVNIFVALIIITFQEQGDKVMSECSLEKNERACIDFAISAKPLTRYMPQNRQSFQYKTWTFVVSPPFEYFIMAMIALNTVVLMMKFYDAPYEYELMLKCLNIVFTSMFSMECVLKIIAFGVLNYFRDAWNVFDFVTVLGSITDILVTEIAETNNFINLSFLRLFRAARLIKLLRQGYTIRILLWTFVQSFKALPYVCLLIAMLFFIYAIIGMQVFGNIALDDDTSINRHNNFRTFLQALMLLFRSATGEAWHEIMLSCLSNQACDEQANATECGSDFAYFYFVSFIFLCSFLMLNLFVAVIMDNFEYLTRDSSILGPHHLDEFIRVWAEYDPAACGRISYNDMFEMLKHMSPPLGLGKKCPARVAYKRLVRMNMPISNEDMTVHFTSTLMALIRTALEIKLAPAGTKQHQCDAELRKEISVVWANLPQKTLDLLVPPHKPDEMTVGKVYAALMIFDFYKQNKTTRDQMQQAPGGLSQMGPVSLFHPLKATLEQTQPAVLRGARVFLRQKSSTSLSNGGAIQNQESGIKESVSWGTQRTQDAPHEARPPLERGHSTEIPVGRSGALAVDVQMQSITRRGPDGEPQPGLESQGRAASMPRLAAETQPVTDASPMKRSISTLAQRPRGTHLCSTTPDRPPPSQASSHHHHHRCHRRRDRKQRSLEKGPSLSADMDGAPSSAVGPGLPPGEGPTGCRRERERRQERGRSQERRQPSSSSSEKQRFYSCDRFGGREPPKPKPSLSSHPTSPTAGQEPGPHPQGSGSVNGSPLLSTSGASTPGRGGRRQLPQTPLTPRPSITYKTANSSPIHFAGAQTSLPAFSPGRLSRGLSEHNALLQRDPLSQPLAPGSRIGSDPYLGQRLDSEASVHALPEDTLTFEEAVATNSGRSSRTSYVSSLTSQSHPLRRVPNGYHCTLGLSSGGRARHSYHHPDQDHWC
T1 sequence (P54289 25-956 partner limits assumed): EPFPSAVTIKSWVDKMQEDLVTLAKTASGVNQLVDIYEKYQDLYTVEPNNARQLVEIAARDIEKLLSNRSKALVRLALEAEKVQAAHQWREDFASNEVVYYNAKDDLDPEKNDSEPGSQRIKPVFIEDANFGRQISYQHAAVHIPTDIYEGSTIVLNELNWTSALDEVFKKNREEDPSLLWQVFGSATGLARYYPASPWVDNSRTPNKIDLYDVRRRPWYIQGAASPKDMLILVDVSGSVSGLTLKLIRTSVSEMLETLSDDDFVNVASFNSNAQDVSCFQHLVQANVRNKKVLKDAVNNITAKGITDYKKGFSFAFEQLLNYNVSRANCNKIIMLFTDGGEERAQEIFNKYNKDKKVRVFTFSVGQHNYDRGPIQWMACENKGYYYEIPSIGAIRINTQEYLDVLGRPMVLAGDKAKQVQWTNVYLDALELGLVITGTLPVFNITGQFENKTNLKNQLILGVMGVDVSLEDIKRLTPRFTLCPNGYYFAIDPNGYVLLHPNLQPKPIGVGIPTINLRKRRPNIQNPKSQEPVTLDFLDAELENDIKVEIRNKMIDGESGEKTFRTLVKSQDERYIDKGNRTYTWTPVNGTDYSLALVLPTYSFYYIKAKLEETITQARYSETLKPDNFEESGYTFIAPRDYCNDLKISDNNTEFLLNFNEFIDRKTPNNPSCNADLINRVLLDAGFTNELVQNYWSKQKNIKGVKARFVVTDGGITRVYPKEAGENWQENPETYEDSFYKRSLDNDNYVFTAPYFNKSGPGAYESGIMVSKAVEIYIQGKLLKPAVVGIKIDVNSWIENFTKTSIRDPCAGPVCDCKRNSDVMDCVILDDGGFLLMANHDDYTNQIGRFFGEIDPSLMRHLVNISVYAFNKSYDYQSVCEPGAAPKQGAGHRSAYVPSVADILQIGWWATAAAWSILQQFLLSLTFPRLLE
T1 sequence (P54289 957-1103 partner limits assumed): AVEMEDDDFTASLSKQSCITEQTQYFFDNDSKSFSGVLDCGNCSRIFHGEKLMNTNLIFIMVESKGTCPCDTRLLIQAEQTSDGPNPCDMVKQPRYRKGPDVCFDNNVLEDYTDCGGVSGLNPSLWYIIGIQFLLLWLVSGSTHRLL
T1 sequence (P54284 whole entry partner): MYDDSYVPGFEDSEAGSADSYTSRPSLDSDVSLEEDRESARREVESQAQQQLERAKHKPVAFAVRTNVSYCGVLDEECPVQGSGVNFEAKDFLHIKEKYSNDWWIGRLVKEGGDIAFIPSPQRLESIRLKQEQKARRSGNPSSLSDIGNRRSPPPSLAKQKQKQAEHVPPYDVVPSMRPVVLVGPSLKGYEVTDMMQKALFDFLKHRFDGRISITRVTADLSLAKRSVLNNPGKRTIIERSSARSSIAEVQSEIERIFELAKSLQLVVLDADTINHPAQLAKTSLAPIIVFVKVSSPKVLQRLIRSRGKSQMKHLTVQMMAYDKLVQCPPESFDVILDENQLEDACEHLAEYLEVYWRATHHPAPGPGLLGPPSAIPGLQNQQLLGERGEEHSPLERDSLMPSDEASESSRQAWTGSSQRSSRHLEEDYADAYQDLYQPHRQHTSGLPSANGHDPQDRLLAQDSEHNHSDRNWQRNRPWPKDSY

Row | Compound | pIC50
1 | O=C(NCC(F)(F)F)c1ncccc1C1=CCN(S(=O)(=O)c2cccc(C(F)(F)F)c2)CC1 [1′-(3-Trifluoromethylbenzenesulfonyl)-1′,2′,3′,6′-tetrahydro-[3,4′]bipyridinyl-2-carboxylic acid 2,2,2-trifluoroethylamide] | 6.18
2 | O=C(NCC1CC1)c1ncccc1C1=CCN(S(=O)(=O)c2cccc(C(F)(F)F)c2)CC1 [1′-(3-Trifluoromethylbenzenesulfonyl)-1′,2′,3′,6′-tetrahydro-[3,4′]bipyridinyl-2-carboxylic acid cyclopropylmethylamide] | 6.85
3 | COC(=O)c1ncccc1C1=CCN(S(=O)(=O)c2cccc(C(F)(F)F)c2)CC1 [1′-(3-Trifluoromethylbenzenesulfonyl)-1′,2′,3′,6′-tetrahydro-[3,4′]bipyridinyl-2-carboxylic acid methyl ester] | < 4.70
4 | O=C(NC1CC1)c1cccc(C2=CCN(S(=O)(=O)Cc3cccc(C(F)(F)F)c3)CC2)n1 [1′-(3-Trifluoromethylbenzylsulfonyl)-1′,2′,3′,6′-tetrahydro-[2,4′]bipyridinyl-6-carboxylic acid cyclopropylamide] | 6.17
5 | O=C(NC1CC1)c1cccc(C2=CCN(S(=O)(=O)c3ccccn3)CC2)n1 [1′-(Pyridin-2-ylsulfonyl)-1′,2′,3′,6′-tetrahydro-[2,4′]bipyridinyl-6-carboxylic acid cyclopropylamide] | 5.00
6 | O=C(NC1CC1)c1cccc(C2=CCN(S(=O)(=O)c3cccnc3)CC2)n1 [1′-(Pyridin-3-ylsulfonyl)-1′,2′,3′,6′-tetrahydro-[2,4′]bipyridinyl-6-carboxylic acid cyclopropylamide] | 5.21
7 | O=C(NC1CC1)c1cccc(C2=CCN(S(=O)(=O)c3ccsc3)CC2)n1 [1′-(Thiophen-3-ylsulfonyl)-1′,2′,3′,6′-tetrahydro-[2,4′]bipyridinyl-6-carboxylic acid cyclopropylamide] | 5.98
8 | O=C(NC1CC1)c1cccc(C2=CCN(S(=O)(=O)C3CCCCC3)CC2)n1 [1′-Cyclohexylsulfonyl-1′,2′,3′,6′-tetrahydro-[2,4′]bipyridinyl-6-carboxylic acid cyclopropylamide] | 6.49
9 | O=C(NC1CC1)c1cccc(C2=CCN(S(=O)(=O)C3CCCC3)CC2)n1 [1′-Cyclopentylsulfonyl-1′,2′,3′,6′-tetrahydro-[2,4′]bipyridinyl-6-carboxylic acid cyclopropylamide] | 5.57
10 | CN(C)S(=O)(=O)N1CC=C(c2cccc(C(=O)NC3CC3)n2)CC1 [1′-Dimethylsulfamoyl-1′,2′,3′,6′-tetrahydro-[2,4′]bipyridinyl-6-carboxylic acid cyclopropylamide] | < 4.70
11 | NC(=O)c1ccnc(C2=CCN(S(=O)(=O)c3cccc(C(F)(F)F)c3)CC2)n1 [2-[1-(3-Trifluoromethylbenzenesulfonyl)-1,2,3,6-tetrahydropyridin-4-yl]-pyrimidine-4-carboxylic acid amide] | 6.44
12 | O=C(NCC1CC1)c1ccnc(C2=CCN(S(=O)(=O)c3cccc(C(F)(F)F)c3)CC2)n1 [2-[1-(3-Trifluoromethylbenzenesulfonyl)-1,2,3,6-tetrahydropyridin-4-yl]pyrimidine-4-carboxylic acid cyclopropylmethylamide] | 6.89
13 | O=C(NC1CC1)c1cccc(C2=CCN(S(=O)(=O)c3cccc(C(F)(F)F)c3)CC2)n1 [Compound 7, 1′-(3-Trifluoromethylbenzenesulfonyl)-1′,2′,3′,6′-tetrahydro-[2,4′]bipyridinyl-6-carboxylic acid cyclopropylamide] | 7.52
14 | COC(=O)c1cccc(C2=CCN(S(=O)(=O)c3cccc(C(F)(F)F)c3)CC2)n1 [Compound 25, 1′-(3-Trifluoromethylbenzenesulfonyl)-1′,2′,3′,6′-tetrahydro-[2,4′]bipyridinyl-6-carboxylic acid methyl ester] | 6.04
15 | O=C(O)c1cccc(C2=CCN(S(=O)(=O)c3cccc(C(F)(F)F)c3)CC2)n1 [Compound 26, 1′-(3-Trifluoromethylbenzenesulfonyl)-1′,2′,3′,6′-tetrahydro-[2,4′]bipyridinyl-6-carboxylic acid] | < 4.70

Next, values leading:

Row | pIC50 | Compound
16 | 7.15 | O=C(NCCO)c1cccc(C2=CCN(S(=O)(=O)c3cccc(C(F)(F)F)c3)CC2)n1 [1′-(3-Trifluoromethylbenzenesulfonyl)-1′,2′,3′,6′-tetrahydro-[2,4′]bipyridinyl-6-carboxylic acid 2-hydroxyethylamide]
17 | 6.38 | O=C(NCCC(F)(F)F)c1ncccc1C1=CCN(S(=O)(=O)c2cccc(C(F)(F)F)c2)CC1 [1′-(3-Trifluoromethylbenzenesulfonyl)-1′,2′,3′,6′-tetrahydro-[3,4′]bipyridinyl-2-carboxylic acid 3,3,3-trifluoropropylamide]
18 | 6.46 | O=C(NC1CC1)c1cccc(C2=CCN(S(=O)(=O)c3ccc(F)cc3)CC2)n1 [1′-(4-Fluorobenzenesulfonyl)-1′,2′,3′,6′-tetrahydro-[2,4′]bipyridinyl-6-carboxylic acid cyclopropylamide]
19 | 6.37 | O=C(NCC(F)(F)F)c1cccc(C2=CCN(S(=O)(=O)c3ccc(OC(F)(F)F)cc3)CC2)n1 [1′-(4-Trifluoromethoxybenzenesulfonyl)-1′,2′,3′,6′-tetrahydro-[2,4′]-bipyridinyl-6-carboxylic acid 2,2,2-trifluoroethylamide]
20 | 6.60 | O=C(NCCC(F)(F)F)c1cccc(C2=CCN(S(=O)(=O)c3ccc(OC(F)(F)F)cc3)CC2)n1 [1′-(4-Trifluoromethoxybenzenesulfonyl)-1′,2′,3′,6′-tetrahydro-[2,4′]-bipyridinyl-6-carboxylic acid 3,3,3-trifluoropropylamide]
21 | 5.72 | O=C(Nc1ccc(F)cc1)c1cccc(C2=CCN(S(=O)(=O)c3ccc(OC(F)(F)F)cc3)CC2)n1 [1′-(4-Trifluoromethoxybenzenesulfonyl)-1′,2′,3′,6′-tetrahydro-[2,4′]-bipyridinyl-6-carboxylic acid 4-fluorophenylamide]
22 | 6.54 | O=C(NC1CC1)c1cccc(C2=CCN(S(=O)(=O)c3ccc(OC(F)(F)F)cc3)CC2)n1 [1′-(4-Trifluoromethoxybenzenesulfonyl)-1′,2′,3′,6′-tetrahydro-[2,4′]bipyridinyl-6-carboxylic acid cyclopropylamide]
23 | 6.02 | O=C(NCC(F)(F)F)c1ncccc1C1=CCN(S(=O)(=O)c2ccc(OC(F)(F)F)cc2)CC1 [1′-(4-Trifluoromethoxybenzenesulfonyl)-1′,2′,3′,6′-tetrahydro-[3,4′]bipyridinyl-2-carboxylic acid 2,2,2-trifluoroethylamide]
24 | 6.03 | O=C(NCCC(F)(F)F)c1ncccc1C1=CCN(S(=O)(=O)c2ccc(OC(F)(F)F)cc2)CC1 [1′-(4-Trifluoromethoxybenzenesulfonyl)-1′,2′,3′,6′-tetrahydro-[3,4′]bipyridinyl-2-carboxylic acid 3,3,3-trifluoropropylamide]
25 | 6.16 | O=C(NCC1CC1)c1ncccc1C1=CCN(S(=O)(=O)c2ccc(OC(F)(F)F)cc2)CC1 [1′-(4-Trifluoromethoxybenzenesulfonyl)-1′,2′,3′,6′-tetrahydro-[3,4′]bipyridinyl-2-carboxylic acid cyclopropylmethylamide]
26 | 6.96 | O=C(NC1CC1)c1cccc(C2=CCN(S(=O)(=O)c3ccc(C(F)(F)F)cc3)CC2)n1 [1′-(4-Trifluoromethylbenzenesulfonyl)-1′,2′,3′,6′-tetrahydro-[2,4′]bipyridinyl-6-carboxylic acid cyclopropylamide]
27 | 6.62 | O=C(NC1CC1)c1ccnc(C2=CCN(S(=O)(=O)c3ccc(OC(F)(F)F)cc3)CC2)n1 [2-[1-(4-Trifluoromethoxybenzenesulfonyl)-1,2,3,6-tetrahydropyridin-4-yl]pyrimidine-4-carboxylic acid cyclopropylamide]
28 | 6.31 | O=C(NC1CC1)c1nc(C2=CCN(S(=O)(=O)c3ccc(OC(F)(F)F)cc3)CC2)ccc1Cl [5-Chloro-1′-(4-trifluoromethoxybenzenesulfonyl)-1′,2′,3′,6′-tetrahydro-[2,4′]bipyridinyl-6-carboxylic acid cyclopropylamide]
29 | < 4.70 | NC(=O)c1ccnc(C2=CCN(S(=O)(=O)c3ccc(OC(F)(F)F)cc3)CC2)n1 [Compound 15, 2-[1-(4-Trifluoromethoxybenzenesulfonyl)-1,2,3,6-tetrahydropyridin-4-yl]-pyrimidine-4-carboxylic acid amide]
